Experiments:
ERK1 = ERK1 (Homo sapiens, UniProt P27361); test: Kinase assay (Caliper, FAM-labeled peptide), ERK1; format: biochemical
Method in brief: (§1)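 Kinase preincubated 10 min at room temperature with serially diluted compound before FAM-labeled peptide plus ATP added; reaction run at 28 °C, then stopped. Substrate conversion read by Caliper mobility shift, normalized to DMSO and low controls, curve-fitted for IC50.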

COLO205 cells = test: Cell proliferation assay (COLO205), Cell-titer Glo; format: cell-based; conditions: Homo sapiens, COLO 205, 120 h incubation
Method in brief: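 Cells seeded 2000/well overnight, then exposed to compound at 30000 down to 4.6 nM final (0.5% DMSO) for 120 h at 37° C, 5% CO2. CellTiter-Glo luminescence converted to % inhibition against DMSO and cell-free controls; IC50 by curve fit.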

HCT 116 cells = test: Cell proliferation assay (HCT 116), Cell-titer Glo; format: cell-based; conditions: Homo sapiens, 120 h incubation
Procedure: The HCT 116 cells were paved in a 96-well plate at 1200 cells, 160 μL/well. After incubating overnight, the compound solutions of gradient concentration was prepared, and 40 μL of DMSO solution of the test compound of each concentration was added to the cells of each well. The final concentration of the compound was 30000, 10000, 3333.3, 1111.1, 370.4, 123.5, 41.2, 13.7, 4.6, 0 nM (the final concentration of DMSO was 0.5%). 5% CO2 was incubated for 120 h at 37° C. 50 μL of Cell-titer Glo working solution was added to each well, shaked and mixed, and incubated at room temperature for 10 minutes. The multi-functional microplate reader read the luminescence value, and converted the luminescence value reading into inhibition percentage. Inhibition percentage=(maximum value−reading)/(maximum value−minimum value)*100.
The “maximum value” was the DMSO control, the “minimum value” indicated the cell-free control group.
Graphpad Prism software was used to perform curve fitting and obtain IC50 value.

ERK2 = ERK2 (Homo sapiens, UniProt P28482); test: Kinase assay (Caliper, FAM-labeled peptide), ERK2; format: biochemical
Chain of ERK2 (P28482 whole entry): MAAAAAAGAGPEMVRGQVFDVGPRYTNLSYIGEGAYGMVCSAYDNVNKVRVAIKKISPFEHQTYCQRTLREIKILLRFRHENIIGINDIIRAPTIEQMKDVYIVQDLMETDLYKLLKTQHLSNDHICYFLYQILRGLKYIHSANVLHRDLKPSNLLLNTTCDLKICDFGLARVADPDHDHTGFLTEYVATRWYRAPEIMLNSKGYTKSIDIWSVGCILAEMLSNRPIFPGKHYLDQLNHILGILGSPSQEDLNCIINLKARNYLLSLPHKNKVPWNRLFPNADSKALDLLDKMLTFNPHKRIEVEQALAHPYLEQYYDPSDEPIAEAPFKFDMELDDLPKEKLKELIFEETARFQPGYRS
Method in brief: as §1

Chain of ERK1 (P27361 whole entry): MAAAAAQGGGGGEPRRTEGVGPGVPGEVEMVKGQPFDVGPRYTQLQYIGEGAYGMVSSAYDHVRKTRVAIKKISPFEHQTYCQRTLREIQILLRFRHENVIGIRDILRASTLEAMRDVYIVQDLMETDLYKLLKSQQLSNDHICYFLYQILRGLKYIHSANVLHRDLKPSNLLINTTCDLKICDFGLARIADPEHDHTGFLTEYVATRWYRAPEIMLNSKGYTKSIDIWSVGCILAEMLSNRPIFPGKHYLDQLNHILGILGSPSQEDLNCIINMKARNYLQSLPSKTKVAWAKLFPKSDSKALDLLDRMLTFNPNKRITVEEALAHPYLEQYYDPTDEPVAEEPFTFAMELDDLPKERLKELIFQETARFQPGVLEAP

SMILES	IC50 (ERK1)	IC50 (COLO205 cells)	IC50 (HCT 116 cells)	IC50 (ERK2)
COC[C@H]1Cn2cc(-c3cc(NC4CCOCC4)ncc3Cl)cc2C(=O)N1Cc1cc(F)ccc1CO [Example 62, (R)-7-(5-chloro-2-((tetrahydro-2h-pyran-4-yl)amino)pyridine-4-yl)-2-(5-fluoro-2-(hydroxymethyl)benzyl)-3-(methoxymethyl)-3,4-dihydropyrrolo[1,2-a] pyrazine-1(2H)-one]	0.93 nM	17.5 nM	7.99 nM	0.39 nM
O=C1c2cc(-c3cc(NC4CCOCC4)ncc3Cl)cn2CCN1Cc1cc(F)ccc1CO [Example 126, 7-(5-chloro-2-((tetrahydro-2h-pyran-4-yl)amino)pyridine-4-yl)-2-(5-fluoro-2-(hydroxymethyl)benzyl)-3,4-dihydropyrrolo[1,2-a] pyrazine-1(2H)-one]	0.57 nM	30.3 nM	14.3 nM	0.32 nM
CC(C)Nc1cc(-c2cc3n(c2)CC(CO)(CO)CN(Cc2cc(F)ccc2CO)C3=O)c(Cl)cn1 [Example 29, 8-(5-chloro-2-(isopropylamino)pyridin-4-yl)-2-(5-fluoro-2-(hydroxymethyl)benzyl)-4,4-bis (hydroxymethyl)-2,3,4,5-tetrahydro-1h-pyrrolo[1,2-a][1,4] diazepine-1-one]	0.68 nM	7.6 nM	6.3 nM	0.83 nM

Continued, values first:

IC50 (ERK1)	IC50 (COLO205 cells)	IC50 (HCT 116 cells)	IC50 (ERK2)	SMILES
0.72 nM	11.3 nM	6.5 nM	0.89 nM	Cn1nccc1Nc1cc(-c2cc3n(c2)CCN(Cc2cc(F)ccc2CO)C3=O)c(Cl)cn1 [Example 50, 7-(5-Chloro-2-((1-methyl-1H-pyrazol-5-yl)amino)pyridin-4-yl)-2-(5-fluoro-2-(hydroxymethyl)benzyl)-3,4-dihydropyrrolo[1,2-a]pyrazine-1(2H)-one]
0.84 nM	16.6 nM	10.4 nM	0.48 nM	COC[C@H]1Cn2cc(-c3nc(Nc4ccnn4C)ncc3C)cc2C(=O)N1Cc1cc(F)ccc1CO [Example 35, (R)-2-(5-fluoro-2-(hydroxymethyl)benzyl)-3-(methoxymethyl)-7-(5-methyl-2-((1-methyl-1H-pyrazol-5-yl)amino)pyrimidin-4-yl)-3,4-dihydropyrrolo[1,2-a]pyrazine-1(2H)-one]
	11 nM	8.4 nM	0.59 nM	COC[C@H]1Cn2cc(-c3cc(Nc4ccnn4C)ncc3Cl)cc2C(=O)N1Cc1cc(F)c(F)c(F)c1CO [Example 168, (R)-7-(5-chloro-2-((1-methyl-1h-pyrazole-5-yl)amino)pyridine-4-yl)-3-(methoxymethyl)-2-(3,4,5-fluoro-2-(hydroxymethyl)benzyl)-3,4-dihydropyrrolo[1,2-a] pyrazine-1(2H)-one]
	6.9 nM	6.9 nM	0.9 nM	COC[C@H]1Cn2cc(-c3cc(Nc4ccnn4C)ncc3Cl)cc2C(=O)N1Cc1cc(F)c(F)cc1CO [Example 95, (R)-7-(5-chloro-2-((1-methyl-1h-pyrazole-5-yl)amino)pyridine-4-yl)-2-(4,5-difluoro-2-(hydroxymethyl)benzyl)-3-(methoxymethyl)-3,4-dihydropyrrolo[1,2-a] pyrazine-1(2H)-one]
0.9 nM	3.3 nM	6.2 nM	1.2 nM	COC[C@H]1Cn2cc(-c3cc(Nc4ccnn4C)ncc3Cl)cc2C(=O)N1Cc1cc(F)ccc1CO [Example 45, (R)-7-(5-chloro-2-((1-methyl-1H-pyrazol-5-yl)amino)pyridin-4-yl)-2-(5-fluoro-2-(hydroxymethyl)benzyl)-3-(methoxymethyl)-3,4-dihydropyrrolo[1,2-a]pyrazine-1(2H)-one]

From US11466013B2 (Betta Pharmaceuticals Co., LTD, priority 2018, dated 2022)
